From patent publication US3984482A, “2-(Dihalobenzyl)-6-nitro-4-t-butylphenol and preparation thereof” (Institut de Recherches Chimiques et Biologiques Appliquees …, priority 1967, dated 1976)
Read-outs that look alike come from different tables or passages of the source.

How the values were obtained:
[1] = test system: London staphylococcus; test: Bacteriostatic activity in vitro by progressive dilution in culture broth, London staphylococcus; assay type: cell-based, Gram-positive London staphylococcus; details: conditions under which the compounds of Formula I were tested
Description: The bacteriostatic activities in vitro of the compounds of Formula I were determined by comparing them with known products, particularly of analogous series. The activity was determined with respect to the specific Gram-positive London staphylococcus as a reference strain for all the compounds.
The test was carried out in a culture broth of the following formula: […]
Indole-free bacteriological peptone
Sodium chloride 5% by weight
The method used involved progressive dilution of the principle tested. The dilutions varied by thousandths between concentrations of one thousandth and one tenth of a thousandth, and by 10 thousandths for concentrations between one tenth of a thousandth and 1/100 of a thousandth, and by hundred thousandths for concentrations between 1/100 of a thousandth and one millionth. If the product was found active at a dilution of one millionth, a new range was made from millionth to millionth to beyond one millionth.
Two dilution series were made independently and the results of the two series must be identical. The readings were carried out after 24 hours.
The figure given in the table is that of the maximum dilution at which the growth of London staphylococcus is inhibited.

[2] = Acute toxicity per os in mice (LD 50, maximum tolerated dose); assay type: in vivo; details: mouse, po; for LD50: read-out: Approximate LD 50; for MTD: read-out: Approximate maximum tolerated dose
Description: The acute toxicity per os was determined in mice by the following method. Different doses of each compound were each tested on 10 mice, both male and female, weighing on average from 18 to 22 g; each dose was administered as a suspension in 10% gum arabic or olive oil and each mouse was given a uniform dose of 0.4 ml per 20 g weight of mouse with the aid of a probang.
The mice were starved for two hours before the experiment and the temperatures and behaviour of the animals were observed before the test and 11/2 and 3 hours after ingestion of the compound. After this time they were replaced in their cages and observed for several days.
The number of dead was counted daily and from this was deduced the lethal dose 50 (LD 50), the maxmum tolerated dose (MTD) and the minimum mortal dose MMD).

SMILES	LD50 ([2]; solvent olive oil) [mg/kg]	MTD ([2]; solvent olive oil) [mg/kg]	further results
Cc1ccc(O)cc1 [Para-cresol]			inhibiting dilution [1]: 1/4000
CC(C)(C)c1ccc(O)c(Cc2ccc(Cl)cc2Cl)c1 [Example 5, 2-(2',4'-dichlorobenzyl)-4-t-butylphenol]	1700	500	
CC(C)c1ccc(O)c(Cc2ccc(Cl)cc2Cl)c1 [Example 4, 2-(2',4'-dichlorobenzyl)-4-isopropylphenol]	1700	500	
CC(C)(C)c1ccc(O)c(Cc2ccc(Cl)cc2)c1 [Example 3, 2-(4'-chlorobenzyl)-4-t-butylphenol]			LD50 ([2]; solvent 10% gum): 1900 mg/kg
CC(C)(C)c1ccc(O)c(Cc2ccc(Cl)c(Cl)c2)c1 [Example 7, 2-(3',4'-dichlorobenzyl)-4-t-butylphenol]	1500	500	
CC(C)(C)c1cc(Cl)c(O)c(Cc2ccc(Cl)cc2Cl)c1 [Example 10, 2-(2',4'-dichlorobenzyl)-6-chloro-4-t-butylphenol]	1500	500	
Oc1ccccc1 [Phenol]			inhibiting dilution [1]: 1/1000
CCC(C)c1ccc(O)c(Cc2ccc(Cl)c(Cl)c2)c1 (stereo not shown) [Example 8, 2-(3',4'-dichlorobenzyl)-4-s-butylphenol]	2400	1000	
CC(C)(C)c1cc(Cl)c(O)c(Cc2ccc(Cl)c(Cl)c2)c1 [Example 9, 2-(3',4'-dichlorobenzyl)-6-chloro-4-t-butylphenol]	> 2500	500	
CCC(C)c1ccc(O)c(Cc2ccc(Cl)cc2)c1 (stereo not shown) [Example 1, 2-(4'-chlorobenzyl)-4-sec-butylphenol]			LD50 ([2]; solvent 10% gum): 1000 mg/kg; MTD ([2]; solvent 10% gum): 500 mg/kg
CC(C)c1ccc(O)c(Cc2ccc(Cl)cc2)c1 [Example 2, 2-(4'-chlorobenzyl)-4-isopropylphenol]	1700	500	
